Tests used:
[1] = tested on: UCP1; test: UCP1 protein levels by western blotting in primary adipocytes; assay type: cell-based, mouse
Method: Cells were homogenized in a lysis buffer containing 50 mM Tris (pH 7.4), 500 mM NaCl, 1% NP40, 20% glycerol, 5 mM EDTA and 1 mM PMSF, supplemented with protease and phosphatase inhibitor cocktails (Roche). The homogenates were centrifuges at 13,000 rpm for 10 min and the supernatants were used as whole cell lysates. Protein concentration was determined by Bio-Rad Bradford assay and 50 μg of proteins were used in each SDS-PAGE run. PVDF membrane was blotted with UCP1 antibody (Abeam) in TBS containing 0.05% Tween and 5% BSA. For secondary antibody incubation, TBS-T containing 5% milk was used. ECL western blotting substrates from Pierce were used for visualization of the results.
Cells were homogenized in a lysis buffer containing 50 mMTris (pH 7.4), 500 mM NaCl, 1% NP40, 20% glycerol, 5 mM EDTA and 1 mM phenylmethylsulphonyl fluoride (PMSF) supplemented with protease and phosphatase inhibitor cocktails (Roche). The homogenates were centrifuged at 13,000 r.p.m. for 10 min, and the supernatants were used as whole-cell lysates. Protein concentration was determined by Bio-Rad protein assay, and […] protein lysate was separated in each SDS-PAGE lane. The separated proteins were transferred to a polyvinylidene difluoride (PVDF)membrane, which was blotted with antibodies in TBS containing 0.05% Tween (TBS-T) and 5% BSA. For secondary antibody incubation. TBS-T containing 5% milk was used. Enhanced chemiluminescence (ECL) western blotting substrates (Pierce) were used for visualization of the results.

[2] = tested on: primary white adipocytes; test: Cellular oxygen consumption rate (XF24 Extracellular Flux Analyzer, Seahorse) of primary adipocytes; assay type: cell-based, mouse; conditions: for uncoupled respiration and maximal respiration potential: 24 hour treatment, norepinephrine 100 nM, peptides 100 ng/mL, SeaHorse (FIG. 8D)
Method: The cellular oxygen consumption rate (OCR) of primary adipocytes was determined using an XF24 Extracellular Flux Analyzer (Seahorse Bioscience). […] Twenty-four hours later, adipocyte culture medium was changed to DMEM lacking NaHCO3 but containing 10 mM glucose, 1 mM pyruvate and the treatment chemicals. The uncoupled and maximal OCRs were determined using […] (carbonyl cyanide p-trifluoromethoxyphenylhydrazone), respectively. Complex-1-dependent respiration was inhibited with 3 μM rotenone. Ex vivo tissue respiration was measured using a Clark electrode (Strathkelvin Instruments) as described in Cohen et al. (2014) Cell 156:304-316. Freshly isolated tissues were briefly minced and transferred to the electrode chamber containing a respiration buffer consisting of 1×DPBS (Delbecco's phosphate-buffered saline), 2% BSA, 25 mM glucose and 1 mM pyruvate. Oxygen consumption values were normalized to tissue weight.

[3] = molecular target: T1, PTH1R (Homo sapiens, UniProt Q03431); conditions: Dean et al., Hoare et al.; cited from earlier work
T1 sequence (Q03431 27-593): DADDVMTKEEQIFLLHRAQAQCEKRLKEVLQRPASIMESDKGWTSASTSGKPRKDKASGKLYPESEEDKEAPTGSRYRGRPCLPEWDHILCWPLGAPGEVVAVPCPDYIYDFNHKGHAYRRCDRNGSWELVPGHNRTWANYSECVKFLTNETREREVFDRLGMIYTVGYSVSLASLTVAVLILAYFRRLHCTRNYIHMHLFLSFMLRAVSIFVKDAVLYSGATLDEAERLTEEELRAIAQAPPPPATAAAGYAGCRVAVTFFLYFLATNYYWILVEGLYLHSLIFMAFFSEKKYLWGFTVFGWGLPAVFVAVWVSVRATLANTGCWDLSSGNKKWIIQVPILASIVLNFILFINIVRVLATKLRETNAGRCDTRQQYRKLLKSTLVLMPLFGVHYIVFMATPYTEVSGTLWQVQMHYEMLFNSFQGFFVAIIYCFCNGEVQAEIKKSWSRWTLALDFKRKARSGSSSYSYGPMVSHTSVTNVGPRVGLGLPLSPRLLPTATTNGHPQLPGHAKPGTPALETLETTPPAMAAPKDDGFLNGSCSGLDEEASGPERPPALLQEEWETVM

Substance: PTH (1-34): Synthetic peptide rat PTH(1-34) (Ala32-Phe65; Catalog No. H-5460), purchased from Bachem
- UCP1 protein levels ([1]; 100 nM NE, 100 ng ml^−1 PTHrP or PTH, 24 h, primary white and brown adipocytes (FIG. 23A-23B)): comparably increased UCP1 protein levels
- UCP1 protein levels ([1]; 24 hour treatment, norepinephrine 100 nM, peptides 100 ng/mL, western blotting (FIG. 8D)): significantly increased
- oxygen consumption, including basal, uncoupled and maximal respiration ([2]; 100 nM NE, 100 ng ml^−1 PTHrP or PTH, 24 h (FIG. 23C)): significantly raised oxygen consumption
- uncoupled respiration and maximal respiration potential [2]: significantly elevate
- uncoupled respiration and maximal respiration potential ([2]; listed as PTH): powerful inducers
- binding in the absence of G protein coupling (RO conformational state) [3]: only slightly decreased
